Laboratory results: patent publication US4795749A, “Imidazopyrroloquinoxaline compounds” (A/S Ferrosan, priority 1985, dated 1989)

Tested on: benzodiazepine receptors
Assay: in vivo displacement of 3H-flunitrazepam from brain benzodiazepine receptors
Details: female mice, intraperitoneal, 15 min before 3H-FNM i.v.; forebrain 20 min after 3H-FNM
From the text: The pharmaceutical properties of the compounds of the invention can be illustrated by determining their capability for displacing radioactivity labelled flunitrazepam from benzodiazepine receptors.
The displacement activity of the compounds of the invention may be found by determining the ED50 value. The ED50 value represents the dose (mg/kg) of a test substance which causes the specific binding of flunitrazepam to benzodiazepine receptors in a living brain to be reduced to 50% of the control value.
Such an in vivo test is carried out as follow:
Principle. Twenty minutes after a dose of ^3 H-flunitrazepam (^3 H-FNM) (200 μCi/kg, i.v.) the amount of specific ^3 H-FNM binding to brain benzodiazepine receptors has reached its maximum value.
Test procedure. […] The amounts of radioactivity on the filters are determined by conventional scintillation counting. […]
Results. The ED50 value is determined from dose response curves. If only one dose of test substance is administered the ED50 value is calculated as follows, provided that the inhibition of specific binding is within the range of 25-75%: [formula] where Co is specific binding in controls and Cx is specific binding in mice treated with test substance.

c1ccc2c(c1)N1CCCC1c1c(-c3noc(C4CC4)n3)ncn1-2 (stereo not shown)
in vivo ED50 (dose reducing specific 3H-flunitrazepam binding to brain benzodiazepine receptors to 50% of the control value): 5.1 mg/kg
